Test results from patent US20120283274A1, “CRYSTALLINE FORMS OF SUBSTITUTED PYRAZOLOPYRIMIDINES” (priority 2009, published 2012).

What was measured:
Type in all cases: physicochemical
[1] = DVS (dynamic vapour sorption), hygroscopicity; settings: for hygroscopicity: DVS 50%->0%->95%->50% r.h.; for post-DVS Raman spectrum, change in form: after DVS cycle; for mass change Δm: change of relative humidity (r.h.) from 50 to 85%
Description: DVS (50%->0%->95%->50% r.h.) was performed on the samples as mentioned above. The results are summarized in the following:
Surface Measurement Systems Ltd. DVS-1 water vapour sorption analyzer and Projekt Messtechnik SPS 11-100n multi-sample water vapor sorption analyzer were used.
The sample was allowed to equilibrate at 50% relative humidity (r.h.) before starting e.g. the following predefined humidity program: • 2 h at 0% r.h. • 0 to 95% r.h. (5%/h) • 3 h at 95% r.h. • 95 to 0% (10%/h) • 2 h at 0% r.h.

[2] = Determination of dissolution rate of a compressed tablet (UV-absorption spectroscopy); set-up: key to Dissolution rate: —: In case that no data given in the Table 3 it was found, that the dissolution rate did not change significantly in moving from the second to the third and fourth sectors; settings: for Dissolution rate: 0.15 M aqueous potassium chloride, 23° C., compressed tablet
Description: Only one face of the tablet was exposed to the dissolution medium, which contained an acetate/phosphate buffer system to minimise perturbation of the experimental pH from dissolution of the drug. Stirring of the solution was continuous and at a constant rate. The absorption data was converted to absolute sample weights using previously determined, pH-dependent, molar extinction coefficients. An appropriate wavelength range was chosen to ensure that spectroscopic data with an absorption value of <1.3 was analyzed, avoiding erroneous dissolution results due to saturation of the […]. Dissolution rates were calculated from the fit of a first-order exponential equation to the experimental data obtained.
The dissolution rates listed in the Table 3 were determined at pH 2.0, 3.9, 5.4, and 7.3 (+/−0.1), at a temperature of 23° C. (+/−1° C.).

[3] = Determination of aqueous solubility (HPLC)
Description: The samples were shaken with a temperature controlled “Thermomixer comfort” from Eppendorf at 800 rpm (24 hours, 23° C.). The resulting suspensions were filtered with Millipore Centrifugal Filter Device UFC30VVNB (0.1) and Centrifuge Hettich EBA 12 R (10.000 g).
The pH of the filtrate was measured, and the concentration of the free base was determined by HPLC (method is described in Example 7).
Suspension of co-crystal in water was agitated with a temperature controlled. Thermomixer comfort” from Eppendorf with 800 rpm (24 hours, 23° C.). The suspension was filtered with Millipore Centrifugal Filter Device UFC30VVNB (0.1μ) and Centrifuge Hettich EBA 12 R (10,000 g).

hygroscopicity [1]	post-DVS Raman spectrum, change in form [1]	mass change Δm [1]	Dissolution rate ([2]; pH 2.0) [µg/min]	Dissolution rate ([2]; pH 3.9) [µg/min]	Dissolution rate ([2]; pH 5.4)	Dissolution rate ([2]; pH 7.3)	enhancement of the dissolution rate compared to the free drug ([2]; at pH 2) [fold]	solubility in water or aqueous solvents ([3]; water or aqueous solvents)	solubility at 24 h ([3]; thermodynamic from solid, water, 24 hours, 23° C., at pH 8.5, near the detection limit) [mg/mL]	total water content ([1]; humidity increased to 95% r.h., equilibrium reached)	Compound
not hygroscopic	does not indicate any change in form	about 0.1%	2.04	1.06	—	—					C[C@@H]1c2ccccc2CCN1C(=O)c1cc2ncc(Br)cn2n1.O=C(O)c1cc(O)ccc1O [Example 3c, co-crystal of (6-bromo-pyrazolo[1,5-a]pyrimidin-2-yl)-(1(R)-methyl-3,4-dihydro-1H-isoquinolin-2-yl)-methanone and gentisic acid]
not hygroscopic	does not indicate any change in form	about 0.1%	2.06	1.58	—	—	3				co-crystal of (6-bromo-pyrazolo[1,5-a]pyrimidin-2-yl)-(1(R)-methyl-3,4-dihydro-1H-isoquinolin-2-yl)-methanone and succinic acid [Example 2a]
								below 10 μg/mL			CC1c2ccccc2CCN1C(=O)c1cc2ncc(Br)cn2n1 (centres unmarked) [compound A]
			0.58	0.22	—	—			< 0.01		C[C@@H]1c2ccccc2CCN1C(=O)c1cc2ncc(Br)cn2n1 [Free drug compound, (6-bromo-pyrazolo[1,5-a]pyrimidin-2-yl)-(1(R)-methyl-3,4-dihydro-1H-isoquinolin-2-yl)-methanone]
slightly hygroscopic	does not indicate any change in form	about 1%	0.46	0.68	1.26 µg/min	1.44 µg/min				approximately 2 wt.-%	C[C@@H]1c2ccccc2CCN1C(=O)c1cc2ncc(Br)cn2n1.O=C(O)c1ccc2ccccc2c1O [Example 4c, co-crystal of (6-bromo-pyrazolo[1,5-a]pyrimidin-2-yl)-(1(R)-methyl-3,4-dihydro-1H-isoquinolin-2-yl)-methanone and xinafoic acid]
